EP0498331B1, “N-(aryloxyalkyl)heteroaryl-8-azabicyclo(3.2.1)octanes, intermediates and a process for the preparation thereof and their use as medicaments” (HOECHST-ROUSSEL PHARMACEUTICALS INCORPORATED, priority 1991, dated 1992)
Counter-ions that a name gives are not always drawn. Like-named read-outs stand apart in the source and are kept apart here.

Experiments:
[1] = target: T1, serotonin (5-hydroxytryptamine [5HT]) uptake (Rattus norvegicus, UniProt P31652); assay: ³H-serotonin uptake in rat whole brain and hypothalamic synaptosomes; format: biochemical; settings: inhibition of [³H]-5HT uptake, 50 nM ³H-5HT, rat whole brain minus cerebella or hypothalamus, 37°C for 5 minutes; log-probit analysis; read-out: 5-HT-IC₅₀
T1 construct: Either whole brain minus cerebella or hypothalmus is weighed and homogenized in 9 volumes of ice-cold 0.32 M sucrose; from tissue; host or cells: Male Wistar rat brain (whole brain minus cerebella, or hypothalamus), S1 supernatant / synaptosomes
Protocol: This activity is determined in an assay which measures ³H-serotonin uptake in rat whole brain and hypothalamic synaptosomes. The assay described below is used as a biochemical screen for potential antidepressants which block serotonin (5-hydroxytryptamine [5HT]) uptake.
1. Krebs-Henseleit Bicarbonate Buffer, pH 7.4 (KHBB): Prepare a 1 liter batch containing the following salts.
The batch is aerated for 60 minutes with 95% 0₂/5% CO₂, the pH is checked to insure it is at 7.4 ± 0.1. 2. Add 0.32 M sucrose: 21.9 g of sucrose, q.s. to 200 ml. 3. A 0.1mM stock solution of serotonin creatinine SO₄ is made up in 0.01 N HCl. This is used to dilute the specific activity of the radiolabeled 5HT. 4. 5-[1,2-³H(N)]-Hydroxytryptamine creatinine sulfate (serotonin) specific activity 20-30 Ci/mmol is used. The final desired concentration of ³H-5HT in the assay is 50 nM. The dilution factor is 0.8. The KHBB is made up to contain 62.5 nM of [³H]-5HT. Add to 100 ml of KHBB.
5. For most assays, a 1mM stock solution of the test compound is made up in a suitable solvent and serially diluted such that the final concentration in the assay ranges from 2 X 10⁻⁸ to 2 X 10⁻⁵M. Seven concentrations are used for each assay.
Male Wistar rats are decapitated and the brain rapidly removed. Either whole brain minus cerebella or hypothalmus is weighed and homogenized in 9 volumes of ice-cold 0.32 M sucrose using a Potter-Elvejhem homogenizer. The homogenate is centrifuged at 1000 g for 10 minutes at 0-4°C. The supernatant (S₁) is decanted and is used for uptake determination.
800 µl KHBB + [³H]-5HT 20 µl Vehicle or appropriate drug 200 µl Tissue suspension concentration
Tubes are incubated at 37°C under a 95%O₂/5% CO₂ atmosphere for 5 minutes. For each assay, 3 tubes are incubated with 20 µl of vehicle at 0°C in an ice bath. After incubation all tubes are immediately centrifuged at 4000 g for 10 minutes. The supernatant fluid is aspirated and the pellets dissolved by adding 1 ml of solubilizer (Triton X-100 and 50% ethanol, 1:4 v/v). The tubes are vigorously vortexted, decanted into scintillation vials, and counted in 10 ml of Liquiscint scintillation counting cocktail. Active uptake is the difference between cpm at 37°C and 0°C. The per cent inhibition at each drug concentration is the mean of three determinations. IC₅₀ values are derived from log-probit analysis.

[2] = system: CK-1 male mice; assay: climbing mice assay (antagonism of apomorphine-induced climbing); format: in vivo; settings: Mus musculus, ip, read-out: CLIMBING MOUSE ASSAY (ED₅₀ mg/kg, ip)
Protocol: The compounds of the present invention are useful for treating psychoses by virtue of their ability to elicit an antipsychotic response in animals. Antipsychotic activity is determined in the climbing mice assay by a method similar to those described by P. Protais, et al., Psychopharmacol., 50:1(1976) and B. Costall, Eur. J. Pharmacol., 50:39 (1978).
Subject CK-1 male mice (23-27 grams) are grouped-housed under standard laboratory conditions. The mice are individually placed in wire mesh stick cages (4" X 10") and are allowed one hour for adaption and exploration of the new environment. Then apomorphine is injected subcutaneously at 1.5 mg/kg, a dose causing climbing in all subjects for 30 minutes. Compounds to be tested for antipsychotic activity are injected intraperitoneally or given oral doses at various time intervals, e.g. 30 minutes, 60 minutes, etc. prior to the apomorphine challenge at a screening dose of 10-60 mg/kg.
For evaluation of climbing, 3 readings are taken at 10, 20 and 30 minutes after apomorphine administration according to the following scale:
Mice consistently climbing before the injection of apomorphine are discarded.
With fully-developed apomorphine climbing, the animals are hanging on to the cage walls, rather motionless, over longer periods of time. By contrast, climbs due to mere motor stimulation usually only last a few seconds.
The climbing scores are individually totaled (maximal score: 6 per mouse over 3 readings) and the total score of the control group (vehicle intraperitoneally-apomorphine subcutaneously) is set to 100%. ED₅₀ values with 95% confidence limits, calculated by a linear regression analysis, of representative compounds of the present invention as well as a standard antipsychotic agent are presented in Table 1.

T1 sequence (P31652 whole entry): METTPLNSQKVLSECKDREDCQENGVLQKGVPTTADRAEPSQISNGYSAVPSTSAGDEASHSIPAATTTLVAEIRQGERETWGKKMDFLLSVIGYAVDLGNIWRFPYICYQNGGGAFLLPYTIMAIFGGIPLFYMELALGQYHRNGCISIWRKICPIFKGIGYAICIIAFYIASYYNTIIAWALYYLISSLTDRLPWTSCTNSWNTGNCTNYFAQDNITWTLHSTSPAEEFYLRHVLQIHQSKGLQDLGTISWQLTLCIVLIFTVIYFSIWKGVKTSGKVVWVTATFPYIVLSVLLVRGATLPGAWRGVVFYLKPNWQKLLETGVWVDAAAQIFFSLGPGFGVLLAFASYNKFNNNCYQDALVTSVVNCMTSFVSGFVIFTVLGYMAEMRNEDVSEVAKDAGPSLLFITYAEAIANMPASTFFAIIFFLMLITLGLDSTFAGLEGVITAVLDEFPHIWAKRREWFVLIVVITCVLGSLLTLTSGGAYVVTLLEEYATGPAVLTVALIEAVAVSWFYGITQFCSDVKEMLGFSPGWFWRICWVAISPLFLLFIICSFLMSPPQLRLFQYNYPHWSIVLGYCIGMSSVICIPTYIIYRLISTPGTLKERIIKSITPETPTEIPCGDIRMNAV

SMILES | IC50 [1] [nM] | further results
COc1cc(C(C)=O)ccc1OCCCCN1C2CCC1CC(c1n[nH]c3cc(F)ccc13)C2 (stereo not shown) [[4-[4-[3-[6-Fluoro-1H-indazol-3-yl]-8-azabicyclo[3.2.1]-octan-8-yl]butoxy]-3-methoxyphenyl]ethanone] | 20 | –
COc1cc(C(C)=O)ccc1OCCN1C2CCC1CC(c1noc3ccccc13)C2 (stereo not shown) [[4-[2-[3-[1,2-Benzisoxazol-3-yl]-8-azabicyclo[3.2.1]octan-8-yl]ethoxy]-3-methoxyphenyl]ethanone fumarate] | 10 | –
COc1cc(C(C)=O)ccc1OCCCCN1C2CCC1CC(c1n[nH]c3ccccc13)C2 (stereo not shown) [[4-[4-[3-[1H-Indazol-3-yl]-8-azabicyclo[3.2.1]octan-8-yl]butoxy]-3-methoxyphenyl]ethanone fumarate hemihydrate] | 70 | –
CN1CCN(C2=Nc3cc(Cl)ccc3Nc3ccccc32)CC1 [Clozapine, reference compound] | – | ED50 ([2]; apomorphine 1.5 mg/kg subcutaneously, climbing score vs control group set to 100%, linear regression analysis): 8.1 mg/kg
COc1cc(C(C)=O)ccc1OCCCCN1C2CCC1CC(c1nsc3ccccc13)C2 (stereo not shown) [[4-[4-[3-[1,2-Benzisothiazol-3-yl]-8-azabicyclo[3.2.1]octan-8-yl]butoxy]-3-methoxyphenyl]ethanone monohydrochloride] | 27 | –
COc1cc(C(C)=O)ccc1OCCN1C2CCC1CC(c1noc3cc(F)ccc13)C2 (stereo not shown) [[4-[2-[3-[6-Fluoro-1,2-benzisoxazol-3-yl]-8-azabicyclo[3.2.1]octan-8-yl]ethoxy]-3-methoxyphenyl]ethanone fumarate] | – | ED50 [2]: 12.5 mg/kg
COc1cc(C(C)=O)ccc1OCCCN1C2CCC1CC(c1noc3cc(F)ccc13)C2 (stereo not shown) [[4-[3-[3-[6-Fluoro-1,2-benzisoxazol-3-yl]-8-azabicyclo[3.2.1]octan-8-yl]propoxy]-3-methoxyphenyl] ethanone monohydrochloride] | – | ED50 [2]: 5 mg/kg
